Our source for the IC50 values is patent publication US10377770B2 (Novartis AG, priority 2015, dated 2019).

What is called IC50 is the point on the concentration scale where inhibition reaches its midpoint. The low end stands for greater potency in that assay, the high end for weaker potency in that assay.

The target of the assay is C-Raf FL (full length CRAF with Y340E and Y341E activating mutations, co-expressed with h14-3-3 zeta) (Homo sapiens (Human), UniProt P04049, Y340E/Y341E). The assay is described as follows: In vitro Raf activity determination, AlphaScreen p-MEK readout, c-Raf (C-Raf FL). It counts as biochemical. The settings on record: c-Raf approximately 4 nM, ATP 1 μM, pre-incubation 60 minutes, reaction 1 hour. In short, it runs like this: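 Full-length C-Raf (~4 nM) pre-incubated 60 min at room temperature with compound and kinase-dead biotinylated MEK1 (~10 nM) in Tris pH 7.5, 15 mM MgCl2, BSA, DTT. Reaction started with 1 μM ATP and run 1 h at room temperature. Phospho-MEK detected by AlphaScreen with anti-p-MEK antibody.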
(In Alpha technology, singlet oxygen from a donor bead excites a nearby acceptor bead.)

Chain of C-Raf FL (full length CRAF with Y340E and Y341E activating mutations, co-expressed with h14-3-3 zeta) (P04049 whole entry Y340E/Y341E): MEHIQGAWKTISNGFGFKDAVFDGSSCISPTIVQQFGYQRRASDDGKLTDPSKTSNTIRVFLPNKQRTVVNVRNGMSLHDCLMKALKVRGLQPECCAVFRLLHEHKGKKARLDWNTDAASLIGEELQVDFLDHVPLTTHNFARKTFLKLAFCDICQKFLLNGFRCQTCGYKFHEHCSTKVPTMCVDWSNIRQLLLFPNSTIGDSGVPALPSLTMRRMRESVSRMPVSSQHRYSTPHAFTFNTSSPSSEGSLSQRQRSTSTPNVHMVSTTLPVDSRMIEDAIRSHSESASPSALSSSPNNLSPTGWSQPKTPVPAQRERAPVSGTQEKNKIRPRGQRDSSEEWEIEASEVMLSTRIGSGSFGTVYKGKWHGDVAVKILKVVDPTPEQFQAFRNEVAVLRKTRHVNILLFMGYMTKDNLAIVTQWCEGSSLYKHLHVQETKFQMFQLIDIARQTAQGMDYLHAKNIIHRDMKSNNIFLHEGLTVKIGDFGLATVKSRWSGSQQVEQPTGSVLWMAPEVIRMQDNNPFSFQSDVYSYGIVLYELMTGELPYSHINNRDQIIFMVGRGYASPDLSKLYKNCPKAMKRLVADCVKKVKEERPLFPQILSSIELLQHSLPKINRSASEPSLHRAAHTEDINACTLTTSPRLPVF
Chain of C-Raf FL (full length CRAF with Y340E and Y341E activating mutations, co-expressed with h14-3-3 zeta) (P63104 whole entry partner): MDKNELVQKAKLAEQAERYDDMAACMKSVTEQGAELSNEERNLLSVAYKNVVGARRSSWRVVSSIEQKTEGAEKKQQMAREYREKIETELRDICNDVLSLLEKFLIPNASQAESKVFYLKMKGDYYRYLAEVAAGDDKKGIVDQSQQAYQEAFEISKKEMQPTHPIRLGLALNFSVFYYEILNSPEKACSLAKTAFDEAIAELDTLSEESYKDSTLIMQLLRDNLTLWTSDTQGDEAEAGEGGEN

In the case of `Cc1ccc(NC(=O)c2cncc(C(F)(F)F)c2)cc1-c1cc2c(cc1F)C[C@](F)(CO)[C@H]1COCCN21` [Example 488, N-(3-((4aR,5R)-5,8-difluoro-5-(hydroxymethyl)-1,2,4,4a,5,6-hexahydro-[1,4]oxazino[4,3-a]quinolin-9-yl)-4-methylphenyl)-5-(trifluoromethyl) nicotinamide], the 50% inhibitory concentration (IC50) was 0.3 nM. Take `Cc1ncc(NC(=O)c2ccnc(C(C)(C)F)c2)cc1-c1cnc2c(c1)[C@@H]1CCOC[C@H]1C(=O)N2CCO` [Example 260, 2-(2-fluoropropan-2-yl)-N-(5-((4aS, 10bR)-66-(2-hydroxyethyl)-5-oxo-2,4,4a,5,6,10b-hexahydro-1H-pyrano[3,4-c][1,8]naphthyridin-9-yl)-6-methylpyridin-3-yl)isonicotinamide]: the IC50 was 0.1 nM. In the case of `Cc1ccc(NC(=O)c2ccnc(C(C)(F)F)c2)cc1-c1ccc2c(c1)N1CCOC[C@@H]1[C@@H](C(=O)O)C2` (racemic) [Example 100, (rac)-(cis)-9-(5-(2-(1,1-difluoroethyl)isonicotinamido)-2-methylphenyl)-1,2,4,4a,5,6-hexahydro-[1,4]oxazino[4,3-a]quinoline-5-carboxylic Acid], the IC50 was 0.037 nM. Then `Cc1ccc(NC(=O)c2ccnc(C(C)(F)F)c2)cc1-c1ccc2c(c1)N1CCOC[C@H]1[C@](F)(CO)C2` [Example 369, 2-(1,1-difluoroethyl)-N-(3-((4aS,5S)-5-fluoro-5-(hydroxymethyl)-1,2,4,4a,5,6-hexahydro-[1,4]oxazino[4,3-a]quinolin-9-yl)-4-methylphenyl)isonicotinamide], with 0.3 nM; and `Cc1ccc(NC(=O)c2ccnc(C(C)(C)F)c2)cc1-c1cc2n(c(=O)c1)CC[C@H]1CCOCCN21` [Example 417, (S)-2-(2-fluoropropan-2-yl)-N-(4-methyl-3-(9-oxo-1,2,5,5a,6,7-hexahydro-4H,9H-pyrido[2′,1′:2,3]pyrimido[1,6-d][1,4]oxazepin-11-yl)phenyl)isonicotinamide], with 0.5 nM; and `Cc1ccc(NC(=O)c2ccnc(C(F)(F)F)c2)cc1-c1ccc2c(=O)c(C(=O)O)c3n(c2c1)CCOC3` [Example 2, 9-(2-methyl-5-(2-(trifluoromethyl)isonicotinamido)phenyl)-6-oxo-1,2,4,6-tetrahydro-[1,4]oxazino[4,3-a]quinoline-5-carboxylic Acid], with 0.136 nM. For `Cc1ccc(NC(=O)c2ccnc(C(C)(C)F)c2)cc1-c1cc(F)c2c(c1)N1CCOC[C@@H]1[C@](F)(CO)C2` [Example 438, N-(3-((4aR,5S)-5,7-difluoro-5-(hydroxymethyl)-1,2,4,4a,5,6-hexahydro-[1,4]oxazino[4,3-a]quinolin-9-yl)-4-methylphenyl)-2-(2-fluoropropan-2-yl)isonicotinamide] the value was 0.8 nM; for `Cc1ccc(NC(=O)c2cnnc(C(F)(F)F)c2)cc1-c1cc2c(cc1F)C[C@@](F)(CO)[C@@H]1COCCN21` [Example 482, N-(3-((4aS,5S)-5,8-difluoro-5-(hydroxymethyl)-1,2,4,4a,5,6-hexahydro-[1,4]oxazino[4,3-a]quinolin-9-yl)-4-methylphenyl)-6-(trifluoromethyl) pyridazine-4-carboxamide], 0.3 nM. The compound `Cc1ncc(NC(=O)c2cccc(C(F)(F)F)c2)cc1-c1ccc2c(c1)N1CCOCC1C(CO)(CO)C2` (racemic) [Example 51, (rac)-N-(5-(5,5-bis(hydroxymethyl)-1,2,4,4a,5,6-hexahydro-[1,4]oxazino[4,3-a]quinolin-9-yl)-6-methylpyridin-3-yl)-3-(trifluoromethyl)benzamide] yielded an IC50 of 0.036 nM. `CCN1C(=O)C2COCCN2c2cc(-c3cc(NC(=O)c4ccnc(C(F)(F)F)c4)ccc3C)cnc21` (stereo in doubt) [Example 115, (R)-N-(3-(6-ethyl-5-oxo-1,2,4,4a,5,6-hexahydropyrido2′,3′:5,6]pyrazino[2,1-c][1,4]oxazin-9-yl)-4-methylphenyl)-2-(trifluoromethyl)isonicotinamide] displayed an IC50 of 0.011 nM.

As for `CCN1C(=O)C2(F)COCC[C@@H]2c2cc(-c3cc(NC(=O)c4ccnc(C(C)(F)F)c4)ccc3C)cnc21` (stereo partly drawn) [Example 338, 2-(1,1-difluoroethyl)-N-(3-((10bR)-6-ethyl-4a-fluoro-5-oxo-2,4,4a,5,6,10b-hexahydro-1H-pyrano[3,4-c][1,8]naphthyridin-9-yl)-4-methylphenyl)isonicotinamide], the IC50 is 0.5 nM. `CCN1C(=O)CC2CCOCCN2c2cc(-c3cc(NC(=O)c4cccc(C(F)(F)F)c4)cnc3C)cnc21` (stereo not drawn) [Example 315, N-(5-(8-ethyl-7-oxo-1,2,4,5,5a,6,7,8-octahydropyrido[3′, 2′:2,3][1,4]diazepino [1,7-d][1,4]oxazepin-11-yl)-6-methylpyridin-3-yl)-3-(trifluoromethyl) benzamide]: inhibition was half-maximal at 1.7 nM (IC50). The compound `Cc1ncc(NC(=O)c2cccc(C(F)(F)F)c2)cc1-c1cnc2c(c1)[C@@H]1CCOC[C@H]1C(=O)N2C(C)C` [Example 262, N-(5-((4aS, 10bR)-6-isopropyl-5-oxo-2,4,4a,5,6,10b-hexahydro-1H-pyrano[3,4-c][1,8]naphthyridin-9-yl)-6-methylpyridin-3-yl)-3-(trifluoromethyl) benzamide] gave an IC50 of 0.7 nM. Then `Cc1ccc(NC(=O)c2cnnc(C(F)(F)F)c2)cc1-c1ccc2c(c1)N1CCOC[C@H]1[C@](F)(CO)C2` [Example 384, N-(3-((4aS,5S)-5-fluoro-5-(hydroxymethyl)-1,2,4,4a,5,6-hexahydro-[1,4]oxazino[4,3-a]quinolin-9-yl)-4-methylphenyl)-6-(trifluoromethyl)pyridazine-4-carboxamide], with 0.2 nM. Then `CCN1C(=O)C2CCOCCC2c2cc(-c3cc(NC(=O)c4ccnc(C(F)(F)F)c4)ccc3C)cnc21` (stereo not drawn) [Example 247, N-(3-((5a, 11b-cis)-7-ethyl-6-oxo-1,2,4,5,5a,6,7,11b-octahydrooxepino 4,5-c][1,8]naphthyridin-10-yl)-4-methylphenyl)-2-(trifluoromethyl) isonicotinamide], with 0.3 nM; and `Cc1ncc(NC(=O)c2cccc(C(F)(F)F)c2)cc1-c1cnc2c(c1)N1CCOC[C@H]1C[C@]2(C)O` (racemic) [Example 44, (rac)-(cis)-N-(5-(6-hydroxy-6-methyl-1,2,4,4a,5,6-hexahydro-[1,4]oxazino[4,3-a][1,5]naphthyridin-9-yl)-6-methylpyridin-3-yl)-3-(trifluoromethyl)benzamide], with 0.037 nM. In the case of `Cc1ccc(NC(=O)c2ccnc(C(F)(F)F)c2)cc1-c1cnc2c(c1)N1CCOCC1C(CO)C2` (racemic) [Example 123, rac-cis-N-(3-(5-(hydroxymethyl)-1,2,4,4a,5,6-hexahydro-[1,4]oxazino[4,3-a][1,5]naphthyridin-9-yl)-4-methylphenyl)-2-(trifluoromethyl)isonicotinamide], the IC50 is 0.0052 nM. Regarding `CCN1C[C@@H]2COCC[C@H]2c2cc(-c3cc(NC(=O)c4cccc(C(F)(F)F)c4)cnc3C)cnc21` [Example 295, N-(5-((4aR, 10bR)-6-ethyl-2,4,4a,5,6,10b-hexahydro-1H-pyrano[3,4-c][1,8]naphthyridin-9-yl)-6-methylpyridin-3-yl)-3-(trifluoromethyl) benzamide], inhibition was half-maximal at 0.1 nM (IC50). For `Cc1ccc(NC(=O)c2cncc(C(F)(F)F)c2)cc1-c1cnc2c(c1)N1CCOC[C@H]1C[C@@H]2O` (racemic) [Example 144, rac-cis-N-(3-(6-hydroxy-1,2,4,4a,5,6-hexahydro-[1,4]oxazino[4,3-a][1,5]naphthyridin-9-yl)-4-methylphenyl)-5-(trifluoromethyl)nicotinamide] the value was 0.0023 nM; for `Cc1ccc(NC(=O)c2ccnc(C(F)(F)F)c2)cc1-c1ccc2c(c1)N1CCOC[C@H]1[C@@](F)(CO)C2` [Example 396, N-(3-((4aS,5R)-5-fluoro-5-(hydroxymethyl)-1,2,4,4a,5,6-hexahydro-[1,4]oxazino[4,3-a]quinolin-9-yl)-4-methylphenyl)-2-(trifluoromethyl)isonicotinamide], 0.2 nM. Then `CCN1C(=O)[C@@H]2[C@H]3COC[C@H]3[C@@H]2c2cc(-c3cc(NC(=O)c4ccnc(C(C)(F)F)c4)ccc3C)cnc21` [Example 269, 2-(1,1-difluoroethyl)-N-(3-((6aS, 6bS, 9aS, 9bS)-5-ethyl-6-oxo-5,6,6a,6b,7,9,9a,9b-octahydrofuro[3′,4′: 3,4]cyclobuta[1,2-c][1,8]naphthyridin-2-yl)-4-methylphenyl) isonicotinamide], with 0.3 nM. `Cc1ccc(NC(=O)c2ccnc(C(C)(F)F)c2)cc1-c1cnc2c(c1)N1CCOC[C@H]1[C@](C#N)(CF)C2` [Example 518, N-(3-((4aR,5R)-5-cyano-5-(fluoromethyl)-1,2,4,4a,5,6-hexahydro-[1,4]oxazino[4,3-a][1,5]naphthyridin-9-yl)-4-methyphenyl)-2-(1,1-difluoroethyl)iso-nicotinamide] came in with an IC50 of 0.1 nM.

`CCN1C(=O)[C@H]2[C@@H]3COC[C@@H]3[C@H]2c2cc(-c3cc(NC(=O)c4ccnc(C(F)(F)F)c4F)ccc3C)cnc21` [Example 276, N-(3-((6aR, 6bR, 9aR, 9bR)-5-ethyl-6-oxo-5,6,6a,6b,7,9,9a,9b-octahydrofuro[3′,4′: 3,4]cyclobuta[1,2-c][1,8]naphthyridin-2-yl)-4-methylphenyl)-3-fluoro-2-(trifluoromethyl) isonicotinamide] had a half-inhibitory concentration (IC50) of 0.5 nM. For `Cc1ccc(NC(=O)c2ccnc(C(C)(C)F)c2)cc1-c1ccc2c(c1)N1CCOC[C@H]1[C@](F)(CN)C2` [Example 525, N-(3-((4aS,5R)-5-(aminomethyl)-5-fluoro-1,2,4,4a,5,6-hexahydro-[1,4]oxazino[4,3-a]quinolin-9-yl)-4-methylphenyl)-2-(2-fluoropropan-2-yl)isonicotinamide] the value was 1.5 nM.
